{
  "source": "patent US10472663B2",
  "about": "“Procedure for the rapid determination of bacterial susceptibility to antibiotics that inhibit protein synthesis” (ABM TECHNOLOGIES, LLC, priority 2015, dated 2019)",
  "test_system": "Escherichia coli",
  "experiment": "Micromax assay of ciprofloxacin-induced DNA fragmentation after a protein synthesis inhibitor (Example 1)",
  "type": "cell-based",
  "conditions": "for DNA fragmentation of nucleoids: tobramycin 4 μg/ml 10 min followed by ciprofloxacin 1 μg/ml 30 min",
  "procedure": "As an exemplification of the principals previously described, two strains of Escherichia coli exponentially growing in Mueller-Hinton broth were assayed (FIGS. 1-6). The first strain of Escherichia coli was a TG1 strain susceptible to both the aminoglycoside tobramycin (an inhibitor of protein synthesis) and the quinolone ciprofloxacin (an agent which induces DNA fragmentation by trapping of topoisomerases in DNA) (FIGS. 1-3). The second strain was a clinical isolate resistant to tobramycin and susceptible to ciprofloxacin (FIGS. 4-6). Four treatments were applied to each strain to rapidly distinguish the susceptible and the resistant strain to tobramycin.\nOne portion of both bacterial strains was incubated with tobramycin at 4 μg/ml for 40 minutes (FIGS. 1 and 4), a dosage indicated by the CLSI as the breakpoint of susceptibility to tobramycin in the standard antibiogram based on microdilution. Another portion of both strains was incubated with ciprofloxacin at 1 μg/ml for 30 min (FIGS. 2 and 5). Still another portion of both strains was incubated with tobramycin at 4 μg/ml for 10 min followed by ciprofloxacin at 1 μg/ml for 30 min, without removing the tobramycin (FIGS. 3 and 6). A final portion was left with no antibiotic.\nAfter each incubation cells were processed using the variant of the Micromax technology to visualize the nucleoids, i.e. bacterial chromosomal DNA, in all the cells of the population. Cells from each culture were immersed in an agarose microgel on a slide and incubated with a specific lysing solution to remove the cell wall in all the cells and release in the microgel the nucleoids contained inside the bacteria. These are dried, stained with a high sensitive fluorochrome for DNA like SYBR Gold and visualized under fluorescence microscopy. FIGS. 1-6 depicts representative images captured under each of the conditions described below.\nThe above described methodology was employed to rapidly determine the susceptibility of 12 strains of E. coli to tobramycin. One portion of each bacterial strain was incubated with tobramycin at the susceptibility breakpoint dosage, 4 μg/ml, for 40 min. A portion of each strain was incubated with ciprofloxacin at 1 μg/ml for 30 min. Still another portion of each strain was incubated with tobramycin at 4 μg/ml for 10 min followed by ciprofloxacin at 1 μg/ml for 30 min, without removing the tobramycin. A final portion of each strain was left with no antibiotic. E. coli strains were identified as susceptible or not based on the levels of DNA fragmentation in the portion of each strain incubated with ciprofloxacin and the portion incubated with tobramycin and ciprofloxacin.\nThe principals exemplified in Example 1 were confirmed with the aminoglycoside amikacin. Briefly, a susceptible and resistant strain of E. coli were exposed to similar conditions to those described in Example 1, except that amikacin was utilized as the protein synthesis inhibiting antibiotic. Specifically, each was strain subjected to four treatments. One portion received no antibiotics, and another portion received only a quinolone, such as ciprofloxacin or norfloxacin to induce DNA fragmentation. Still another portion received the protein synthesis inhibiting antibiotic aminoglycoside amikacin, followed by the quinolone. Another portion received only amikacin. A final portion received neither antibiotic.\nThe principals exemplified in Example 1 were further confirmed with the aminoglycoside gentamicin. Briefly, the rapid test was performed on 15 isolated E. coli strains according to the methodology described above, except that gentamicinin was utilized as the protein synthesis inhibiting antibiotic. Suppressed DNA fragmentation were used to characterize bacterial susceptibility and those characterizations were verified with the standard antibiogram for gentamicin by microdilution. […]",
  "key": {"[1]": {"conditions": "rapid test, confirmed by microdilution antibiogram, 12 strains for tobramycin, 15 for gentamicin"}},
  "data": [
    {"compound": "NC[C@H]1O[C@H](O[C@H]2[C@H](O)[C@@H](O[C@H]3O[C@H](CO)[C@@H](O)[C@H](N)[C@H]3O)[C@H](N)C[C@@H]2N)[C@H](N)C[C@@H]1O", "note": "[tobramycin]", "values": [
      {"measurement": "E. coli strains identified as non-susceptible (resistant)", "setting": "[1]", "result": "three of the twelve strains as non-susceptible"},
      {"measurement": "E. coli strains identified as susceptible", "setting": "[1]", "result": "nine of the twelve strains as susceptible"},
      {"measurement": "DNA fragmentation of nucleoids", "setting": "tobramycin-resistant clinical isolate", "result": "the DNA was extensively fragmented"},
      {"measurement": "DNA fragmentation of nucleoids", "setting": "tobramycin-susceptible TG1 strain", "result": "nucleoids with reduced level of DNA fragmentation"},
      {"measurement": "modification of nucleoids", "setting": "tobramycin alone 4 μg/ml 40 min, both tobramycin-susceptible and -resistant strains", "result": "did not result in any modifications of the nucleoids"}
    ]}
  ]
}
